The values that follow come from patent publication US20040063668A1, “Novel acyclic nucleoside phosphonate derivatives, salts thereof and process for the preparation of the same” (priority 2001, published 2004).

Read-outs that look alike come from different tables or passages of the source. Some results are limits rather than exact numbers.

One may read the CC50 as the concentration giving 50% cytotoxicity. The term EC50 denotes the concentration giving half of the maximal effect.

Data set [1] can be described thus: Determination of cytotoxicity (MTT) in HepG2.2.15 cells. The following applies: human.
Another data set relates to Hepatitis B Virus (HBV). Briefly: Inhibition of hepatitis B virus replication in HepG2.2.15 cell culture, quantitative PCR. The following applies: read-out: EC50(μM) in HBV. The data set is classed as cell-based.
A further data set deals with HBV. The data set is classed as in vivo, HBV transgenic mice (FVB strain). The following applies: effect = blood does not contain HBV DNA.
A further data set relates to HepG2.2.15. The data set can be described thus: Determination of cytotoxicity (MTT) in HepG2.2.15 cells. Particulars: read-out: CC50(μM) in HepG2.2.15; MTT, 10th day from treatment with drug.
Where [2] appears, read: Hepatitis B virus, 240 h, HepG2.2.15 culture medium, 10 days after treatment with drug, PCR of HBV DNA.
The mark [3] stands for this setting: subcutaneous, 10 mg/kg/day for 9 days.

For `CC(C)(C)C(=O)OCOP(=O)(COC1(Cn2cnc3cnc(N)nc32)CC1)OCOC(=O)C(C)(C)C` [Compound 10, 3-[({1-[(2-amino-9H-purin-9-yl)methyl]cyclopropyl}oxy)methyl]-8,8-dimethyl-3,7-dioxo-2,4,6-trioxa-3 ^5-phosphanon-1-yl pivalate], the CC50 at 10 days in data set [1] was more than 1000 µM. Also, in the data set on Hepatitis B Virus (HBV) (Hepatitis B virus, HepG2.2.15, 240 h), the EC50 is more than 0.08 µM. Moreover, the “Result: number of mice showing pharmacological effect/number of total mice” value in the data set with HBV (oral, 0.4 mg/kg/day for 9 days) is reported as 5/6; with HBV (oral, 2 mg/kg/day for 9 days), 4/4.

`CC1CC1(Cn1cnc2c(O)nc(N)nc21)OCP(=O)(O)O` (stereo not drawn) [Compound 97, ({1-[(2-amino-6-hydroxy-9H-purin-9-yl)methyl]-2-methylcyclopropyl}oxy)methylphosphonic acid]: the 50% cytotoxic concentration (CC50) at 10 days in data set [1] is more than 1000 µM. For the same molecule, the 50% effective concentration (EC50) in the data set with Hepatitis B Virus (HBV) (setting [2]) was more than 0.05 µM. Further, in the data set with HBV (setting [3]), the “Result: number of mice showing pharmacological effect/number of total mice” value is 4/4.

As for `CCOc1nc(N)nc2c1ncn2CC1(OCP(=O)(O)O)CC1` [Compound 23, ({1-[(2-amino-6-ethoxy-9H-purin-9-yl)methyl]cyclopropyl}oxy)methyl phosphonic acid], the CC50 at 10 days in data set [1] is more than 1000 µM. Also, the EC50 with Hepatitis B Virus (HBV) (setting [2]) was more than 0.1 µM. In addition, the “Result: number of mice showing pharmacological effect/number of total mice” value in the data set with HBV (setting [3]) is recorded as 4/4.

On to `Nc1nc(N2CCOCC2)c2ncn(CC3(OCP(=O)(O)O)CC3)c2n1` [Compound 37, [(1-{[2-amino-6-(4-morpholinyl)-9H-purin-9-yl]methyl}cyclopropyl)oxy]methyl phosphonic acid], for which the CC50 at 10 days in data set [1] is more than 1000 µM. The EC50 in the data set on Hepatitis B Virus (HBV) (setting [2]) is more than 5 µM.

Molecule `Cc1ccc(Sc2nc(N)nc3c2ncn3CC2(OCP(=O)(O)O)CC2)cc1` [Compound 66, {[1-({2-amino-6-[(4-methylphenyl)sulfanyl]-9H-purin-9-yl}methyl)cyclopropyl]oxy}methylphosphonic acid] had a CC50 at 10 days in data set [1] of more than 1000 µM. Also, the EC50 in the data set with Hepatitis B Virus (HBV) (setting [2]) is more than 0.1 µM. Besides, in the data set with HBV (setting [3]), the “Result: number of mice showing pharmacological effect/number of total mice” value is recorded as 4/4.

In data set [1], `Nc1ncc2ncn(CC3(OCP(=O)(O)O)CC3)c2n1` [Compound 9, ({1-[(2-amino-9H-purin-9-yl)methyl]cyclopropyl}oxy)methylphosphonic acid] displayed a CC50 at 10 days of more than 1000 µM. In addition, in the data set with Hepatitis B Virus (HBV) (setting [2]), the EC50 was more than 0.3 µM.

For `CC(C)Nc1nc(N)nc2c1ncn2CC1(OCP(=O)(O)O)CC1` [Compound 17, [(1-{[2-amino-6-(isopropylamino)-9H-purin-9-yl]methyl}cyclopropyl)oxy]methyl phosphonic acid], the CC50 at 10 days in data set [1] is more than 1000 µM. In addition, the EC50 with Hepatitis B Virus (HBV) (setting [2]) was more than 0.5 µM.

Turning to `Nc1nc(O)c2ncn(CC3(OCP(=O)(OCC(F)(F)F)OCC(F)(F)F)CC3)c2n1` [Compound 45, bis(2,2,2-trifluoroethyl)({1-[(2-amino-6-hydroxy-9H-purin-9-yl)methyl]cyclopropyl}oxy)methylphosphonate], the CC50 at 10 days in data set [1] was more than 1000 µM. Besides, in the data set on Hepatitis B Virus (HBV) (setting [2]), the EC50 was more than 0.5 µM.

In turn, `Cc1ccc(Sc2nc(N)nc3c2ncn3CC2(OCP(=O)(OCC(F)(F)F)OCC(F)(F)F)CC2)cc1` [Compound 62, bis(2,2,2-trifluoroethyl){[1-({2-amino-6-[(4-methylphenyl)sulfanyl]-9H-purin-9-yl}methyl)cyclopropyl]oxy}methylphosphonate] showed a CC50 at 10 days in data set [1] of more than 1000 µM. Also, the EC50 with Hepatitis B Virus (HBV) (setting [2]) is more than 0.5 µM.

For `Nc1nc(Cl)c2ncn(CC3(OCP(=O)(OCC(F)(F)F)OCC(F)(F)F)CC3)c2n1` [Compound 46, bis(2,2,2-trifluoroethyl)({1-[(2-amino-6-chloro-9H-purin-9-yl)methyl]cyclopropyl}oxy)methylphosphonate], in data set [1], the CC50 at 10 days was more than 1000 µM. Moreover, the EC50 with Hepatitis B Virus (HBV) (setting [2]) is more than 1 µM.

As to `Nc1ncnc2c1ncn2CCOCP(=O)(O)O` [PMEA, reference compound], in the data set on HepG2.2.15, the 50% cytotoxic concentration (CC50) is more than 500 µM. In the data set on Hepatitis B Virus (HBV) (HepG2.2.15 culture medium, 10 days after treatment with drug, PCR of HBV DNA), the EC50 is 5 µM.

As for `Nc1ncnc2c1ncn2CC1(OCP(=O)(O)O)CC1` [Compound 1, ({1-[(6-amino-9H-purin-9-yl)methyl]cyclopropyl}oxy)methylphosphonic acid], the CC50 at 10 days in data set [1] was more than 1000 µM. In the data set with Hepatitis B Virus (HBV) (setting [2]), the half-maximal effective concentration (EC50) is more than 1 µM.

On to `CCNc1nc(N)nc2c1ncn2CC1(OCP(=O)(O)O)CC1` [Compound 13, ({1-[(2-amino-6-ethylamino-9H-purin-9-yl)methyl]cyclopropyl}oxy)methylphosphonic Acid], for which, in data set [1], the CC50 at 10 days was more than 1000 µM. The EC50 in the data set on Hepatitis B Virus (HBV) (setting [2]) is more than 1 µM.

`Nc1nc(N)c2ncn(CC3(OCP(=O)(O)O)CC3)c2n1` [Compound 19, ({1-[(2,6-diamino-9H-purin-9-yl)methyl]cyclopropyl}oxy)methylphosphonic acid] had a CC50 at 10 days in data set [1] of more than 1000 µM. In addition, the EC50 in the data set with Hepatitis B Virus (HBV) (setting [2]) is more than 0.3 µM.

For `Nc1nc(NC2CC2)c2ncn(CC3(OCP(=O)(O)O)CC3)c2n1` [Compound 11, ({1-[(2-amino-6-cyclopropylamino-9H-purin-9-yl)methyl]cyclopropyl}oxy)meth-ylplhosplhonic acid], the CC50 at 10 days in data set [1] is more than 1000 µM. Also, the EC50 with Hepatitis B Virus (HBV) (setting [2]) was more than 20 µM.

In turn, `CC(C)(C)C(=O)OCOP(=O)(COC1(Cn2cnc3c(N)ncnc32)CC1)OCOC(=O)C(C)(C)C` [Compound 2, 3-[({1-[(6-amino-9H-purin-9-yl)methyl]cyclopropyl}oxy)methyl]-8,8-dimethyl-3,7-dioxo-2,46-trioxa-3 ^5-phosphanon-1-yl pivalate] yielded a CC50 at 10 days in data set [1] of more than 1000 µM. Also, the EC50 with Hepatitis B Virus (HBV) (setting [2]) was more than 0.1 µM.

Consider `CC1CC1(Cn1cnc2cnc(N)nc21)OCP(=O)(O)O` (stereo not drawn) [Compound 98, ({1-[(2-amino-9H-purin-9-yl)methyl]-2-methylcyclopropyl}oxy)methylphosphonic acid], for which, in data set [1], the CC50 at 10 days is more than 1000 µM. The EC50 in the data set on Hepatitis B Virus (HBV) (setting [2]) is more than 1 µM. Besides, the “Result: number of mice showing pharmacological effect/number of total mice” value in the data set on HBV (setting [3]) is listed as 4/4.

Molecule `Cc1cn(CC2(OCP(=O)(O)O)CC2)c(=O)[nH]c1=O` [Compound 31, [(1-{[5-methyl-2,4-dioxo-3,4-dihydro-1(2H)-pyrimnidinyl]methyl}cyclopropyl)oxy]methylphosphonic acid] returned a CC50 at 10 days in data set [1] of more than 1000 µM. Besides, in the data set with Hepatitis B Virus (HBV) (setting [2]), the EC50 is more than 50 µM.

On to `Cc1nc(N)nc2c1ncn2CC1(OCP(=O)(O)O)CC1` [Compound 25, ({1-[(2-amino-6-methyl-9H-purin-9-yl)methyl]cyclopropyl}oxy)methyl phosphonic acid], for which the cytotoxic concentration (CC50) at 10 days in data set [1] was more than 1000 µM. In the data set with Hepatitis B Virus (HBV) (setting [2]), the EC50 is more than 5 µM.

Molecule `CN1CCN(c2nc(N)nc3c2ncn3CC2(OCP(=O)(O)O)CC2)CC1` [Compound 41, [(1-{[2-amino-6-(4-methyl-1-piperazinyl)-9H-purin-9-yl]methyl}cyclopropyl)oxy]methylphosphonic Acid] yielded a CC50 at 10 days in data set [1] of more than 1000 µM. In the data set with Hepatitis B Virus (HBV) (setting [2]), the EC50 is more than 1 µM.

Turning to `Nc1nc(Cl)c2ncn(CC3(OCP(=O)(O)O)CC3)c2n1` [Compound 3, ({1-[(2-amino-6-chloro-9H-purin-9-yl)methyl]cyclopropyl}oxy)methylphosphonic acid], the CC50 at 10 days in data set [1] is more than 1000 µM. Besides, the EC50 in the data set on Hepatitis B Virus (HBV) (setting [2]) was more than 0.5 µM.

In the case of `Nc1nc(O)c2ncn(CC3(OCP(=O)(O)O)CC3)c2n1` [Compound 5, ({1-[(2-amino-6-hydroxy-9H-purin-9-yl)methyl]cyclopropyl}oxy)methyl phosphonic acid], the CC50 at 10 days in data set [1] was more than 1000 µM. Also, the concentration giving a half-maximal response (EC50) with Hepatitis B Virus (HBV) (setting [2]) was more than 0.1 µM.

The molecule `CN(C)c1nc(N)nc2c1ncn2CC1(OCP(=O)(O)O)CC1` [Compound 15, [(1-{[2-amino-6-(dimethylamino)-9H-purin-9-yl]methyl}cyclopropyl)oxy]methyl phosphonic acid] registered a CC50 at 10 days in data set [1] of more than 1000 µM. The EC50 in the data set on Hepatitis B Virus (HBV) (setting [2]) was more than 0.8 µM.

In turn, `CC(C)(C)OC(=O)OCOP(=O)(COC1(Cn2cnc3cnc(N)nc32)CC1)OCOC(=O)OC(C)(C)C` [Compound 69, bis{[(t-butoxycarbonyl)oxy]methyl}({1-[(2-amino-9H-purin-9-yl)methyl]cyclopropyl}oxy)methylphosphonate] gave a CC50 at 10 days in data set [1] of more than 1000 µM. Besides, the EC50 in the data set with Hepatitis B Virus (HBV) (setting [2]) was more than 1 µM.
